Experimental data reported in US6953789B2, “Thiol compounds, their production and use” (Takeda Chemical Industries, Ltd., priority 1998, dated 2005).

Target: T1, recombinant human MMP-13 (Homo sapiens, UniProt P45452)
T1 construct: made in house; host or cells: baculovirus (pBlueBac4 / Bac-N-Blue; virus made in Sf9), expressed in High-Five insect cells; culture supernatant used
Assay: Assay of MMP-13 inhibiting activity (fluorogenic peptide substrate)
Assay type: biochemical
Settings: 37° C., 2 hours
Summary of the method: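 Baculovirus-expressed human MMP-13 (High-Five cell supernatant) in pH 7.5 Tris buffer with 200 mM NaCl, 20 mM CaCl2, 0.1% Brij 35, 1 mM 2-mercaptoethanol; reaction started with 40 μM (stock) MOCAc-PLGL-A2pr(DNP)-AR-NH2, 2 h at 37 °C, stopped at pH 3.0. Fluorescence 330/405 nm; IC50 versus no-compound control.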

| SMILES | IC50 (Table 12) [nM] | IC50 (Table 9) [nM] |
| --- | --- | --- |
| O=C1CCC(S)CN1Cc1ccc(Oc2ccccc2)cc1 (centres unmarked) [Example 109, 1-(4-Phenoxybenzyl)-5-sulfanyl-2-piperidinone] | 60 |  |
| CC(=O)SC1CC(=O)N(Cc2ccc(Oc3cccc(F)c3)cc2)C1 (centres unmarked) [Example 114, 4-Acetylthio-1-[4-(3′-fluorophenoxy)benzyl]pyrrolidin-2-one] |  | 10 |
| O=C1CC(S)CN1Cc1ccc(Oc2cccc(F)c2)cc1 (centres unmarked) [Example 115, 4-Mercapto-1-[4-(3′-fluorophenoxy)benzyl]pyrrolidin-2-one] |  | 4 |
| O=C1C[C@@H](S)CN1Cc1ccc(Oc2ccc(F)cc2)cc1 [Example 118, (R)-4-Mercapto-1-[4-(4′-fluorophenoxy)benzyl]pyrrolidin-2-one] |  | 2 |
| O=C1CC(S)CN1Cc1ccc(Oc2ccc(F)cc2F)cc1 (centres unmarked) [Example 120, 4-Mercapto-1-[4-(2′,4′-difluorophenoxy)benzyl]pyrrolidin-2-one] |  | 7 |
| CC(=O)SC1CC(=O)N(Cc2ccc(Oc3ccc(F)c(F)c3)cc2)C1 (centres unmarked) [Example 121, 4-Acetylthio-1-[4-(3′,4′-difluorophenoxy)benzyl]pyrrolidin-2-one] |  | 20 |
| CCc1ccc(Oc2ccc(CN3C[C@H](SC(C)=O)CC3=O)cc2)cc1 [Example 124, (R)-4-Acethylthio-1-[4-(4′-ethylphenoxy)benzyl]pyrrolidin-2-one] |  | 7 |
| CC(=O)S[C@@H]1CC(=O)N(Cc2ccc(Oc3ccc(C)cc3)cc2)C1 [Example 127, (R)-4-Acetylthio-1-[4-(4′-methylphenoxy)benzyl]pyrrolidin-2-one] |  | 10 |
| Cc1ccc(Oc2ccc(CN3CC(S)CC3=O)cc2)cc1 (centres unmarked) [Example 128, 4-Mercapto-1-[4-(4′-methylphenoxy)benzyl]pyrrolidin-2-one] |  | 7 |
| O=C1CC(S)CN1Cc1ccc(Oc2ccc(C(F)(F)F)cc2)cc1 (centres unmarked) [Example 130, 4-Mercapto-1-{4-[4′-(trifluoromethyl)phenoxy]benzyl}pyrrolidin-2-one] |  | 10 |
| CCOC(=O)c1ccc(Oc2ccc(CN3CC(SC(C)=O)CC3=O)cc2)cc1 (centres unmarked) [Example 131, 4-Acetylthio-1-[4-(4′ethoxycarbonylphenoxy)benzyl]pyrrolidin-2-one] |  | 20 |
| CC(=O)SC1CC(=O)N(Cc2ccc(Oc3ccc(C(=O)O)cc3)cc2)C1 (centres unmarked) [Example 133, 4-Acetylthio-1-[4-(4′-carboxyphenoxy)benzyl]pyrrolidin-2-one] |  | > 10000 |
| CC(=O)SC1CC(=O)N(Cc2ccc(Oc3ccc(C(N)=O)cc3)cc2)C1 (centres unmarked) [Example 134, 4-Acetylthio-1-[4-(4′-aminocarbonylphenoxy)benzyl]pyrrolidin-2-one] |  | 29 |
| NC(=O)c1ccc(Oc2ccc(CN3CC(S)CC3=O)cc2)cc1 (centres unmarked) [Example 135, 4-Mercapto-1-[4-(4′-aminocarbonylphenoxy)benzyl]pyrrolidin-2-one] |  | 9.2 |
| CC(=O)SC1CC(=O)N(Cc2ccc(Oc3ccc(O)cc3)cc2)C1 (centres unmarked) [Example 136, 4-Acetylthio-1-[4-(4′-hydroxyphenoxy)benzyl]pyrrolidin-2-one] |  | 9 |
| O=C1CC(S)CN1Cc1ccc(Oc2ccc(O)cc2)cc1 (centres unmarked) [Example 137, 4-Mercapto-1-[4-(4′-hydroxyphenoxy)benzyl]pyrrolidin-2-one] |  | 3 |
| CCOc1ccc(Oc2ccc(CN3CC(SC(C)=O)CC3=O)cc2)cc1 (centres unmarked) [Example 138, 4-Acetylthio-1-[4-(4′-ethoxyphenoxy)benzyl]pyrrolidin-2-one] |  | 20 |
| CCOc1ccc(Oc2ccc(CN3CC(S)CC3=O)cc2)cc1 (centres unmarked) [Example 139, 4-Mercapto-1-[4-(4′-ethoxyphenoxy)benzyl]pyrrolidin-2-one] |  | 6 |
| CC(=O)SC1CC(=O)N(Cc2ccc(Oc3ccc(OC(F)(F)F)cc3)cc2)C1 (centres unmarked) [Example 140, 4-Acetylthio-1-{4-[4′-(trifluoromethoxy)phenoxy]benzyl}pyrrolidin-2-one] |  | 20 |
| O=C1CC(S)CN1Cc1ccc(Oc2ccc(OC(F)(F)F)cc2)cc1 (centres unmarked) [Example 141, 4-Mercapto-1-{4-[4′-(trifluoromethoxy)phenoxy]benzyl}pyrrolidin-2-one] |  | 10 |
| CC(=O)SC1CC(=O)N(Cc2ccc(Oc3ccc([N+](=O)[O-])cc3)cc2)C1 (centres unmarked) [Example 142, 4-Acetylthio-1-[4-(4′-nitrophenoxy)benzyl]pyrrolidin-2-one] |  | 53 |
| CC(=O)Nc1ccc(Oc2ccc(CN3CC(SC(C)=O)CC3=O)cc2)cc1 (centres unmarked) [Example 144, 4-Acetylthio-1-[4-(4′-acetoaminophenoxy)benzyl]pyrrolidin-2-one] |  | 2.7 |
| CC(=O)SC1CC(=O)N(Cc2ccc(Oc3ccc(NS(C)(=O)=O)cc3)cc2)C1 (centres unmarked) [Example 146, 4-Acetylthio-1-[4-(4′-methylsulfonylaminophenoxy)benzyl]pyrrolidin-2-one] |  | 25 |
| CS(=O)(=O)Nc1ccc(Oc2ccc(CN3CC(S)CC3=O)cc2)cc1 (centres unmarked) [Example 147, 4-Mercapto-1-[4-(4′-methylsulfonylaminophenoxy)benzyl]pyrrolidin-2-one] |  | 1.2 |

Second part, the compound after the results:

| IC50 (Table 12) [nM] | IC50 (Table 9) [nM] | SMILES |
| --- | --- | --- |
| 17 |  | O=C1CC(S)CCN1Cc1ccc(Oc2ccccc2)cc1 (centres unmarked) [Example 111, 1-(4-Phenoxybenzyl)-4-sulfanyl-2-piperidinone] |
|  | 4 | O=C1CC(S)CN1Cc1ccc(Oc2ccccc2F)cc1 (centres unmarked) [Example 113, 4-Mercapto-1-[4-(2′-fluorophenoxy)benzyl]pyrrolidin-2-one] |
|  | 7000 | CC(=O)S[C@H]1CC(=O)N(Cc2ccc(Oc3ccc(F)cc3)cc2)C1 [Example 116, (S)-4-Acethylthio-1-[4-(4′-fluorophenoxy)benzyl)pyrrolidin-2-one] |
|  | 7 | CC(=O)S[C@@H]1CC(=O)N(Cc2ccc(Oc3ccc(F)cc3)cc2)C1 [Example 117, (R)-4-Acethylthio-1-[4-(4′-fluorophenoxy)benzyl]pyrrolidin-2-one] |
|  | 10 | CC(=O)SC1CC(=O)N(Cc2ccc(Oc3ccc(F)cc3F)cc2)C1 (centres unmarked) [Example 119, 4-Acetylthio-1-[4-(2′,4′-difluorophenoxy)benzyl]pyrrolidin-2-one] |
|  | 20 | O=C1CC(S)CN1Cc1ccc(Oc2ccc(F)c(F)c2)cc1 (centres unmarked) [Example 122, 4-Mercapto-1-[4-(3′,4′-difluorophenoxy)benzyl]pyrrolidin-2-one] |
|  | 8.9 | CC(=O)S[C@@H]1CC(=O)N(Cc2ccc(Oc3ccc(C)cc3)cc2)C1 [Example 123, (R)-4-Acethylthio-1-[4-(4′-methylphenoxy)benzyl]pyrrolidin-2-one] |
|  | 30 | CC(=O)SC1CC(=O)N(Cc2ccc(Oc3ccc(C(F)(F)F)cc3)cc2)C1 (centres unmarked) [Example 129, 4-Acetylthio-1-[4-(4′-(trifluoromethyl)phenoxy)benzyl]pyrrolidin-2-one] |
|  | 3.3 | CCOC(=O)c1ccc(Oc2ccc(CN3CC(S)CC3=O)cc2)cc1 (centres unmarked) [Example 132, 4-Mercapto-1-[4-(4′-ethoxycarbonylphenoxy)benzyl]pyrrolidin-2-one] |
|  | 11 | O=C1CC(S)CN1Cc1ccc(Oc2ccc([N+](=O)[O-])cc2)cc1 (centres unmarked) [Example 143, 4-Mercapto-1-[4-(4′-nitrophenoxy)benzyl]pyrrolidin-2-one] |
|  | 1.3 | CC(=O)Nc1ccc(Oc2ccc(CN3CC(S)CC3=O)cc2)cc1 (centres unmarked) [Example 145, 4-Mercapto-1-[4-(4′-acetoaminophenoxy)benzyl]pyrrolidin-2-one] |
